Test results taken from article PMC10657444, “Design and evaluation of tadpole-like conformational antimicrobial peptides” (Communications Biology, 2023).
Values after ≈ are worked out from the molar mass of the structure shown. Values joined by “and” are separate entries in the source; they are usually repeats but may differ in a detail not shown here. Equal values may be shown once. Read-outs that look alike come from different tables or passages of the source. Residues, ends and D or L forms follow the SMILES beside them.

Key:
[1] = tested on: K. pneumoniae ATCC 700603; assay type: cell-based, Klebsiella pneumoniae
From the text: (§1) Bacteria were cultivated in Luria-Bertani (LB) broth.

K. pneumoniae 3026 = assay type: cell-based, Klebsiella pneumoniae
From the text: as §1

Acinetobacter baumannii = assay type: cell-based
From the text: as §1

A. baumannii 1318 = assay type: cell-based, Acinetobacter baumannii
From the text: as §1

A. baumannii 1337 = assay type: cell-based, Acinetobacter baumannii
From the text: as §1

E. coli ATCC 25922 = assay type: cell-based, Escherichia coli
From the text: as §1

E. coli S = assay type: cell-based, Escherichia coli
From the text: as §1

HEK293T cells = assay: MTT cytotoxicity assay; assay type: cell-based, human; conditions: for percent cell viability: HEK293T
Procedure: (§2) To determine the cytotoxicity of the peptides, we used the MTT (3-(4,5)-dimethylthiahiazo (-z-y1)-3,5-di-phenytetrazoliumromide) dye reduction assay against HEK293T cells. In brief, the 100 μL of cells in 96-well plate were incubated for 24 h at 37 °C, 5% CO2, and then peptide solutions (concentrations ranging from 100 to 0.39 μM) were added and further incubated for 72 h. MTT solution (5 mg/mL) was added and further incubated for 4 h. After incubation, the precipitated MTT formazan crystal was dissolved by addition of dimethyl sulfoxide (DMSO). […]

MTT cytotoxicity assay = assay type: cell-based, human; conditions: human
Procedure: as §2

MRSA USA 300 = assay type: cell-based, Staphylococcus aureus
From the text: as §1

MRSA ATCC 43300 = assay type: cell-based, Staphylococcus aureus; conditions: ATCC 43300
From the text: as §1

MRSA = assay type: cell-based, Staphylococcus aureus
From the text: as §1

MRSA 3393 = assay type: cell-based, Staphylococcus aureus; conditions: 3393
From the text: as §1

sheep red blood cells = assay: Hemolysis assay
Procedure: To evaluate the hemolysis effects of peptides, red blood hemolysis was performed as described with minimum modifications. Sterile defibrated sheep blood was purchased from Guangzhou Hongquan Biotechnology Co., LTD. Blood cells were adjusted to 2 × 10^9 cells/mL in phosphate-buffered saline (PBS, pH 7.4). In total, 98 μL sheep red blood cell suspension was incubated with 2 μL of peptides at different concentrations ranging from 3.13 to 100 µM. After incubation for 1 h at 37 °C, the cells were centrifuged and the absorbance of the supernatant was measured at 450 nm. The value for “zero hemolysis” was determined using sterile PBS, while 100% hemolysis was established using 1.5% (v/v) Triton X-100. Hemolysis of testing sample was calculated as the percentage of Triton X-100-induced hemolysis.

[2] = tested on: all tested bacterial strains; conditions: range over all strains
From the text: The bacterial strains used in this study included the Gram-positive bacteria methicillin resistant Staphylococcus aureus (MRSA) (MRSA ATCC 43300 and 2 clinically isolated strains presented as MRSA USA 300 and MRSA 3393), Gram-negative bacteria Escherichia coli (E. coli ATCC 25922, and 1 clinically isolated strain presented as E. coli S), Klebsiella pneumoniae (K. pneumoniae ATCC 700603, and 1 clinically isolated strain presented as K. pneumoniae 3026), and Acinetobacter baumannii (2 clinically isolated strains presented as A. baumannii 1318 and A. baumannii 1337). Bacteria were cultivated in Luria-Bertani (LB) broth.
The Clinical and Laboratory Standards Institute (CLSI)-defined broth microdilution testing method (M07, 11th edition, 2018) was used to determine MICs for peptides. Briefly, the concentrations of the peptides and ciprofloxacin in the assay wells ranged from 100 μM to 0.01 μM as a 11-point dose response plated as a 2-fold dilution series across the wells of the plate in duplicate for each independent biological replicate. Bacterial susceptibility assays were performed in Cation-Adjusted Mueller Hinton Broth (CAMHB), and using a final cell density of 5 × 10^6 CFU/mL for bacteria[36]. Final assay volumes were 100 μL per well with MICs determined by measuring absorbance at 595 nm with a microplate reader following 18–20 h incubation at 37 °C. […]

[3] = tested on: Gram-negative bacterial strains; assay type: cell-based; conditions: range over the strains
From the text: as §1

[4] = HEK293T cells, OD450, cytotoxicity (Fig 2a), replicates

CC[C@H](C)[C@H](NC(=O)[C@H](CCCNC(=N)N)NC(=O)[C@H](CCCNC(=N)N)NC(=O)[C@H](CC(C)C)NC(=O)[C@@H](N)Cc1ccccc1)C(=O)N[C@@H](Cc1ccccc1)C(=O)N[C@@H](Cc1ccccc1)C(=O)N[C@@H](Cc1ccccc1)C(=O)N[C@@H](Cc1ccccc1)C(N)=O [HT1] (H-FLRRIFFFF-NH2)
MIC Gram- K. p ATCC 700603 [1]: > 100 µM
MIC Gram- K. p 3026 (K. pneumoniae 3026): > 100 µM
MIC against Gram-negative Acinetobacter baumannii (Acinetobacter baumannii): 25 µM (≈ 32.3 µg/mL)
MIC Gram- A. b 1318 (A. baumannii 1318): 25 µM (≈ 32.3 µg/mL)
MIC Gram- A. b 1337 (A. baumannii 1337): 25 µM (≈ 32.3 µg/mL)
MIC Gram- E. coli ATCC 25922 (E. coli ATCC 25922): 25 µM (≈ 32.3 µg/mL)
MIC Gram- E. coli S (E. coli S): 12.5 µM (≈ 16.1 µg/mL)
toxicity / cytotoxicity against HEK293T cells (in words) (HEK293T cells): high toxicity
IC50 at 72 h (MTT cytotoxicity assay): 2.7 µM
viability at 72 h, 0.39 µM (MTT cytotoxicity assay; [4]): 93.6%
viability at 72 h, 0.78 µM (MTT cytotoxicity assay; [4]): 87.3%
viability at 72 h, 1.57 µM (MTT cytotoxicity assay; [4]): 78%
viability at 72 h, 3.13 µM (MTT cytotoxicity assay; [4]): 30.5%
viability at 72 h, 12.5 µM (MTT cytotoxicity assay; [4]): 0.557%
viability at 72 h, 25 µM (MTT cytotoxicity assay; [4]): 1.3%
MIC Gram+ MRSA USA 300 (MRSA USA 300): 6.25 µM (≈ 8.07 µg/mL)
MIC Gram+ MRSA ATCC 43300 (MRSA ATCC 43300): 3.13 µM (≈ 4.04 µg/mL)
MICs against MRSA (MRSA): 3.13 to 6.25 µM
MIC Gram+ MRSA 3393 (MRSA 3393): 6.25 µM (≈ 8.07 µg/mL)
HC10 (concentration inducing 10% hemolysis) (sheep red blood cells; red cells of sheep, 1 h): 25.0 µM

CC[C@H](C)[C@H](NC(=O)[C@H](CCCNC(=N)N)NC(=O)[C@H](CCCNC(=N)N)NC(=O)[C@H](CC(C)C)NC(=O)[C@H](Cc1ccccc1)NC(=O)[C@@H](N)CCCNC(=N)N)C(=O)N[C@@H](Cc1ccccc1)C(=O)N[C@@H](CCCNC(=N)N)C(=O)N[C@@H](Cc1ccccc1)C(=O)N[C@@H](Cc1ccccc1)C(=O)N[C@@H](Cc1ccccc1)C(N)=O [HT4] (H-RFLRRIFRFFF-NH2)
MIC Gram- K. p ATCC 700603 [1]: 3.13 µM (≈ 5.02 µg/mL)
MIC Gram- K. p 3026 (K. pneumoniae 3026): 12.5 µM (≈ 20 µg/mL)
MIC Gram- A. b 1318 (A. baumannii 1318): 3.13 µM (≈ 5.02 µg/mL)
MIC Gram- A. b 1337 (A. baumannii 1337): 3.13 µM (≈ 5.02 µg/mL)
MIC Gram- E. coli ATCC 25922 (E. coli ATCC 25922): 6.25 µM (≈ 10 µg/mL)
MIC Gram- E. coli S (E. coli S): 12.5 µM (≈ 20 µg/mL)
toxicity / cytotoxicity against HEK293T cells (in words) (HEK293T cells): high toxicity
IC50 at 72 h (MTT cytotoxicity assay): 2.6 µM
viability at 72 h, 0.39 µM (MTT cytotoxicity assay; [4]): 85.8%
viability at 72 h, 0.78 µM (MTT cytotoxicity assay; [4]): 80%
viability at 72 h, 1.57 µM (MTT cytotoxicity assay; [4]): 70.9%
viability at 72 h, 3.13 µM (MTT cytotoxicity assay; [4]): 34.7%
viability at 72 h, 6.25 µM (MTT cytotoxicity assay; [4]): 22.3%
viability at 72 h, 12.5 µM (MTT cytotoxicity assay; [4]): 13.4%
viability at 72 h, 25 µM (MTT cytotoxicity assay; [4]): 5.83%
MIC Gram+ MRSA USA 300 (MRSA USA 300): 3.13 µM (≈ 5.02 µg/mL)
MIC Gram+ MRSA ATCC 43300 (MRSA ATCC 43300): 3.13 µM (≈ 5.02 µg/mL)
MIC Gram+ MRSA 3393 (MRSA 3393): 3.13 µM (≈ 5.02 µg/mL)
HC10 (concentration inducing 10% hemolysis) (sheep red blood cells; red cells of sheep, 1 h): 12.5 µM
MICs against all tested bacterial strains [2]: 3.13 to 12.5 µM

CC[C@H](C)[C@H](NC(=O)[C@H](CCCNC(=N)N)NC(=O)[C@H](CCCNC(=N)N)NC(=O)[C@H](CC(C)C)NC(=O)[C@H](Cc1ccccc1)NC(=O)[C@@H](N)CCCNC(=N)N)C(=O)N[C@@H](Cc1ccccc1)C(=O)N[C@@H](CCCCN)C(=O)N[C@@H](Cc1ccccc1)C(=O)N[C@@H](Cc1ccccc1)C(=O)N[C@@H](Cc1ccccc1)C(N)=O [HT5] (H-RFLRRIFKFFF-NH2)
MIC Gram- K. p ATCC 700603 [1]: 12.5 µM (≈ 19.7 µg/mL)
MIC Gram- K. p 3026 (K. pneumoniae 3026): 12.5 µM (≈ 19.7 µg/mL)
MIC Gram- A. b 1318 (A. baumannii 1318): 3.13 µM (≈ 4.93 µg/mL)
MIC Gram- A. b 1337 (A. baumannii 1337): 3.13 µM (≈ 4.93 µg/mL)
MIC Gram- E. coli ATCC 25922 (E. coli ATCC 25922): 6.25 µM (≈ 9.85 µg/mL)
MIC Gram- E. coli S (E. coli S): 6.25 µM (≈ 9.85 µg/mL)
toxicity / cytotoxicity against HEK293T cells (in words) (HEK293T cells): high toxicity
IC50 at 72 h (MTT cytotoxicity assay): 2.3 µM
viability at 72 h, 0.39 µM (MTT cytotoxicity assay; [4]): 85.5%
viability at 72 h, 0.78 µM (MTT cytotoxicity assay; [4]): 79.4%
viability at 72 h, 1.57 µM (MTT cytotoxicity assay; [4]): 62.7%
viability at 72 h, 3.13 µM (MTT cytotoxicity assay; [4]): 21%
viability at 72 h, 6.25 µM (MTT cytotoxicity assay; [4]): 22.6%
viability at 72 h, 12.5 µM (MTT cytotoxicity assay; [4]): 8.57%
viability at 72 h, 25 µM (MTT cytotoxicity assay; [4]): 10.4%
MIC Gram+ MRSA USA 300 (MRSA USA 300): 3.13 µM (≈ 4.93 µg/mL)
MIC Gram+ MRSA ATCC 43300 (MRSA ATCC 43300): 3.13 µM (≈ 4.93 µg/mL)
MIC Gram+ MRSA 3393 (MRSA 3393): 3.13 µM (≈ 4.93 µg/mL)
HC10 (concentration inducing 10% hemolysis) (sheep red blood cells; red cells of sheep, 1 h): 12.5 µM
MICs against all tested bacterial strains [2]: 3.13 to 12.5 µM

CC[C@H](C)[C@H](NC(=O)[C@H](CCCNC(=N)N)NC(=O)[C@H](CO)NC(=O)[C@H](CC(C)C)NC(=O)[C@H](Cc1ccccc1)NC(=O)[C@H](Cc1ccccc1)NC(=O)[C@@H](N)Cc1ccccc1)C(=O)N[C@@H](Cc1ccccc1)C(N)=O [SHf] (H-FFFLSRIF-NH2; N-terminus assumed)
MICs against the tested Gram-negative bacterial strains [3]: > 100 µM
percent cell viability (HEK293T cells; 0.39 µM): 94.1313 and 97.2791
percent cell viability (HEK293T cells; 0.78 µM): 95.9839 and 98.206
percent cell viability (HEK293T cells; 1.57 µM): 94.1313 and 96.7238
percent cell viability (HEK293T cells; 3.13 µM): 98.2056
percent cell viability (HEK293T cells; 6.25 µM): 98.9467 and 92.2795
percent cell viability (HEK293T cells; 12.5 µM): 99.6874 and 99.3163
percent cell viability (HEK293T cells; 25 µM): 98.9463 and 99.3171
percent cell viability (HEK293T cells; 50 µM): 91.54 and 92.6507
percent cell viability (HEK293T cells; 100 µM): 21.5425 and 18.5796
viability at 72 h, 0.39 µM (MTT cytotoxicity assay; HEK293T cells, HEK293T, 0.39 µM, read-out: OD450, cytotoxicity (Fig 2a), replicates): 99%
viability at 72 h, 0.78 µM (MTT cytotoxicity assay; HEK293T cells, HEK293T, 0.78 µM, read-out: OD450, cytotoxicity (Fig 2a), replicates): 90.4%
viability at 72 h, 1.57 µM (MTT cytotoxicity assay; HEK293T cells, HEK293T, 1.57 µM, read-out: OD450, cytotoxicity (Fig 2a), replicates): 97.8%
viability at 72 h, 3.13 µM (MTT cytotoxicity assay; HEK293T cells, HEK293T, 3.13 µM, read-out: OD450, cytotoxicity (Fig 2a), replicates): 100%
viability at 72 h, 6.25 µM (MTT cytotoxicity assay; HEK293T cells, HEK293T, 6.25 µM, read-out: OD450, cytotoxicity (Fig 2a), replicates): 92.7%
viability at 72 h, 12.5 µM (MTT cytotoxicity assay; HEK293T cells, HEK293T, 12.5 µM, read-out: OD450, cytotoxicity (Fig 2a), replicates): 93.4%
viability at 72 h, 25 µM (MTT cytotoxicity assay; HEK293T cells, HEK293T, 25 µM, read-out: OD450, cytotoxicity (Fig 2a), replicates): 94.9%
viability at 72 h, 50 µM (MTT cytotoxicity assay; HEK293T cells, HEK293T, 50 µM, read-out: OD450, cytotoxicity (Fig 2a), replicates): 92.3%
viability at 72 h, 100 µM (MTT cytotoxicity assay; HEK293T cells, HEK293T, 100 µM, read-out: OD450, cytotoxicity (Fig 2a), replicates): 27.1%
IC50 at 72 h (MTT cytotoxicity assay; HEK293T, MTT, 72 h, read-out: IC50, mammalian cell cytotoxicity): 59 µM
MICs against MRSA (MRSA; range over the MRSA strains): 50 to 100 µM
OD450, hemolysis (Fig 2b), replicates (sheep red blood cells; 3.13 µM): 0.01725 and 0.01686 and 0.01568 and 0.01738 and 0.01699 and 0.0158
OD450, hemolysis (Fig 2b), replicates (sheep red blood cells; 6.25 µM): 0.01882 and 0.01529 and 0.01725 and 0.01896 and 0.01541 and 0.01738
OD450, hemolysis (Fig 2b), replicates (sheep red blood cells; 12.5 µM): 0.01725 and 0.01803 and 0.01764 and 0.01738 and 0.01817 and 0.01777
OD450, hemolysis (Fig 2b), replicates (sheep red blood cells; 25 µM): 0.01921 (2×) and 0.01764 and 0.01936 (2×) and 0.01777
OD450, hemolysis (Fig 2b), replicates (sheep red blood cells; 50 µM): 0.02038 and 0.02156 and 0.01921 and 0.02054 and 0.02173 and 0.01936
OD450, hemolysis (Fig 2b), replicates (sheep red blood cells; 100 µM): 0.01999 and 0.02234 and 0.02195 and 0.02014 and 0.02252 and 0.02212
hemolytic activity (in words) (sheep red blood cells; sheep red blood cells, 3.13–100 μM): did not present hemolytic activity
HC10 (concentration inducing 10% hemolysis) (sheep red blood cells; sheep red blood cells, 1 h at 37 °C): > 100.0 µM
